Laboratory results as given in paper PMC12409540 (ACS Omega, 2025).

Target: Nurr1 protein (Homo sapiens, UniProt P43354)
Experiment: SPR
Type: binding

Sequence of Nurr1 protein (P43354 whole entry): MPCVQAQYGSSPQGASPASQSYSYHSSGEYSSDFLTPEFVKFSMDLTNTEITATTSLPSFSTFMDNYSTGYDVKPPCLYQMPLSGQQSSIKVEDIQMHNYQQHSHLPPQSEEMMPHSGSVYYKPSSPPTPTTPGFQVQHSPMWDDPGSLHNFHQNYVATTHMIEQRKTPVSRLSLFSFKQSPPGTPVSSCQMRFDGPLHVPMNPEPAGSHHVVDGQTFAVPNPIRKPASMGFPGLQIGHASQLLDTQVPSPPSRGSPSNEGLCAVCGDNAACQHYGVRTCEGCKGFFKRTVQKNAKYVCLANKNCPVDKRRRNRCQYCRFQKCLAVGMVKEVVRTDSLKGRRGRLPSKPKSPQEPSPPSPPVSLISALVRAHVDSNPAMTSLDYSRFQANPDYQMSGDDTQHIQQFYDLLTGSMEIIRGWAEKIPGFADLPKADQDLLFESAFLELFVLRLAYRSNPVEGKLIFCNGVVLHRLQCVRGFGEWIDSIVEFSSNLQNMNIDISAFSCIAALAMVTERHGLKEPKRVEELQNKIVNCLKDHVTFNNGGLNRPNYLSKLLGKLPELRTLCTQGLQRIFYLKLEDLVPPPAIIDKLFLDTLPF

| SMILES | Kd [µM] |
| --- | --- |
| CCN(CC)Cc1cc(Nc2ccnc3cc(Cl)ccc23)ccc1O [amodiaquine] | 37 |
| CO[C@H]1C[C@H](O[C@H]2CC[C@]3(C=O)[C@H]4CC[C@]5(C)[C@@H](C6=CC(=O)OC6)CC[C@]5(O)[C@@H]4CC[C@]3(O)C2)O[C@H](C)[C@H]1O[C@@H]1O[C@H](CO[C@@H]2O[C@H](CO)[C@@H](O)[C@H](O)[C@H]2O)[C@@H](O)[C@H](O)[C@H]1O [compound 7, K-strophanthoside] | 23.1 |
